Laboratory results reported in patent US4822790A, “1-Sulfo-2-oxoazetidine derivatives and their production” (Takeda Chemical Industries, Ltd., priority 1980, dated 1989).

Columns and labels:
Format in all cases: cell-based
[1] = test system: Staphylococcus aureus 308A-1; experiment: Antibacterial test (MIC), Staphylococcus aureus 308A-1; settings: medium TSA
From the text: (§1) The following is media and compounds employed in the antibacterial test.
(§2) TSA=Trypticase soy agar [Baltimore Biologicals (U.S.A.)]
(§3) B-TSA=Blood trypticase soy agar

[2] = test system: Enterobacter cloacae IFO 12937; experiment: Antibacterial test (MIC), Enterobacter cloacae IFO 12937; settings: medium TSA
From the text: as §1, §2, §3

Klebsiella pneumoniae DT = experiment: Antibacterial test (MIC), Klebsiella pneumoniae DT; settings: medium TSA
From the text: as §1, §2, §3

[3] = test system: Serratia marcescens IFO 12648; experiment: Antibacterial test (MIC), Serratia marcescens IFO 12648; settings: medium TSA
From the text: as §1, §2, §3

[4] = test system: Citrobacter freundii IFO 12681; experiment: Antibacterial test (MIC), Citrobacter freundii IFO 12681; settings: medium TSA
From the text: as §1, §2, §3

Escherichia coli 0-111 = experiment: Antibacterial test (MIC), Escherichia coli 0-111; settings: medium TSA
From the text: as §1, §2, §3

[5] = test system: Staphylococcus aureus FDA209P; experiment: Antibacterial test (MIC), Staphylococcus aureus FDA209P
From the text: as §1, §2, §3

[6] = test system: Staphylococcus aureus 1840; experiment: Antibacterial test (MIC), Staphylococcus aureus 1840; settings: medium TSA
From the text: as §1, §2, §3

[7] = test system: Streptococcus pyogenes S-8; experiment: Antibacterial test (MIC), Streptococcus pyogenes S-8; settings: medium B-TSA
From the text: as §1, §2, §3

[8] = test system: Proteus vulgaris IFO 3988; experiment: Antibacterial test (MIC), Proteus vulgaris IFO 3988; settings: medium TSA
From the text: as §1, §2, §3

[9] = test system: Proteus morganii IFO 3168; experiment: Antibacterial test (MIC), Proteus morganii IFO 3168; settings: medium TSA
From the text: as §1, §2, §3

[10] = test system: Acinetobacter calcoaceticus IFO 13006; experiment: Antibacterial test (MIC), Acinetobacter calcoaceticus IFO 13006; settings: medium TSA
From the text: as §1, §2, §3

[11] = test system: Streptococcus mitis America; experiment: Antibacterial test (MIC), Streptococcus mitis America; settings: medium B-TSA
From the text: as §1, §2, §3

[12] = test system: Streptococcus pneumoniae Type I; experiment: Antibacterial test (MIC), Streptococcus pneumoniae Type I; settings: medium B-TSA
From the text: as §1, §2, §3

[13] = test system: Streptococcus faecium IFO 3128; experiment: Antibacterial test (MIC), Streptococcus faecium IFO 3128; settings: medium B-TSA
From the text: as §1, §2, §3

[14] = test system: Pseudomonas aeruginosa U 31; experiment: Antibacterial test (MIC), Pseudomonas aeruginosa U 31; settings: medium TSA
From the text: as §1, §2, §3

[15] = test system: Corynebacterium diphtheriae Toronto; experiment: Antibacterial test (MIC), Corynebacterium diphtheriae Toronto; settings: medium B-TSA
From the text: as §1, §2, §3

Escherichia coli T-7 = experiment: Antibacterial test (MIC), Escherichia coli T-7; settings: medium TSA
From the text: as §1, §2, §3

[16] = test system: Streptococcus pyogenes E-14; experiment: Antibacterial test (MIC), Streptococcus pyogenes E-14; settings: medium B-TSA
From the text: as §1, §2, §3

[17] = test system: Bordetella bronchiseptica Sagami; experiment: Antibacterial test (MIC), Bordetella bronchiseptica Sagami; settings: medium B-TSA
From the text: as §1, §2, §3

[18] = test system: Escherichia coli NIHJ JC-2; experiment: Antibacterial test (MIC), Escherichia coli NIHJ JC-2; settings: medium TSA
From the text: as §1, §2, §3

Candida albicans TA = experiment: Antibacterial test (MIC), Candida albicans TA; settings: medium TSA
From the text: as §1, §2, §3

[19] = test system: Proteus mirabilis IFO 3849; experiment: Antibacterial test (MIC), Proteus mirabilis IFO 3849; settings: medium TSA
From the text: as §1, §2, §3

[20] = test system: Pseudomonas aeruginosa IFO 3455; experiment: Antibacterial test (MIC), Pseudomonas aeruginosa IFO 3455; settings: medium TSA
From the text: as §1, §2, §3

| Compound | Minimum inhibitory concentration (MIC) [1] | Minimum inhibitory concentration (MIC) [2] | Minimum inhibitory concentration (MIC) (Klebsiella pneumoniae DT) | Minimum inhibitory concentration (MIC) [3] | Minimum inhibitory concentration (MIC) [4] | Minimum inhibitory concentration (MIC) ([5]; medium B-TSA) | Minimum inhibitory concentration (MIC) ([5]; medium TSA) | Minimum inhibitory concentration (MIC) [6] | Minimum inhibitory concentration (MIC) [7] | Minimum inhibitory concentration (MIC) [8] | Minimum inhibitory concentration (MIC) [9] | Minimum inhibitory concentration (MIC) [10] | Minimum inhibitory concentration (MIC) [11] | Minimum inhibitory concentration (MIC) [12] | Minimum inhibitory concentration (MIC) [13] | Minimum inhibitory concentration (MIC) [14] | Minimum inhibitory concentration (MIC) [15] | Minimum inhibitory concentration (MIC) (Escherichia coli T-7) | Minimum inhibitory concentration (MIC) [16] | Minimum inhibitory concentration (MIC) [17] | also measured |
| --- | --- | --- | --- | --- | --- | --- | --- | --- | --- | --- | --- | --- | --- | --- | --- | --- | --- | --- | --- | --- | --- |
| O=C(NC1CN(S(=O)(=O)[O-])C1=O)C(NC(=O)N1CCN(N=Cc2ccco2)C1=O)c1cccs1.[Na+] (centres unmarked) [Compound L, Sodium 3-[2-[(2-oxo-3-furfurylideneaminoimidazolidin-1-yl)-carboxamido]-2-thienylacetamido]-2-oxoazetidine-1-sulfonate] | 3.13 µg/mL | 25 µg/mL | < 0.1 µg/mL | 1.56 µg/mL | 1.56 µg/mL | 6.25 µg/mL | 6.25 µg/mL | 25 µg/mL | 0.78 µg/mL | 0.2 µg/mL | 12.5 µg/mL | 50 µg/mL | 6.25 µg/mL | 1.56 µg/mL | > 100 µg/mL | > 100 µg/mL | 1.56 µg/mL | > 100 µg/mL | 0.78 µg/mL | > 100 µg/mL | Minimum inhibitory concentration (MIC) (Escherichia coli 0-111): < 0.1 µg/mL; Minimum inhibitory concentration (MIC) [18]: 1.56 µg/mL; Minimum inhibitory concentration (MIC) (Candida albicans TA): > 100 µg/mL; Minimum inhibitory concentration (MIC) [19]: 0.78 µg/mL; Minimum inhibitory concentration (MIC) [20]: 3.13 µg/mL |
| CCN1CCN(C(=O)NC(C(=O)NC2CN(S(=O)(=O)[O-])C2=O)c2cccs2)C(=O)C1=O.[Na+] (racemic) [Compound E, Sodium 3-[DL-2-(4-ethyl-2,3-dioxo-1-piperazinocarboxamido)-2-thienylacetamido]-2-oxoazetidine-1-sulfonate] | 6.25 µg/mL | 3.13 µg/mL | 0.78 µg/mL | 3.13 µg/mL | 3.13 µg/mL | 6.25 µg/mL | 6.25 µg/mL | 25 µg/mL | 3.13 µg/mL | < 0.1 µg/mL | 12.5 µg/mL | 50 µg/mL | 25 µg/mL | 3.13 µg/mL | > 100 µg/mL | > 100 µg/mL | 0.39 µg/mL | > 100 µg/mL | 1.56 µg/mL | > 100 µg/mL | Minimum inhibitory concentration (MIC) (Escherichia coli 0-111): 0.2 µg/mL; Minimum inhibitory concentration (MIC) [18]: 1.56 µg/mL; Minimum inhibitory concentration (MIC) (Candida albicans TA): > 100 µg/mL; Minimum inhibitory concentration (MIC) [19]: 0.78 µg/mL; Minimum inhibitory concentration (MIC) [20]: 3.13 µg/mL |
| CCCCCCCCN1CCN(C(=O)NC(C(=O)NC2CN(S(=O)(=O)[O-])C2=O)c2cccs2)C(=O)C1=O.[Na+] (centres unmarked) [Compound J, Sodium 3-[2-(4-n-octyl-2,3-dioxo-1-piperazinocarboxamido)-2-thienylacetamido]-2-oxoazetidine-1-sulfonate] | 1.56 µg/mL | 6.25 µg/mL | 1.56 µg/mL | 1.56 µg/mL | 3.13 µg/mL | 3.13 µg/mL | 1.56 µg/mL | 6.25 µg/mL | 1.56 µg/mL | 1.56 µg/mL | 1.56 µg/mL | 6.25 µg/mL | 25 µg/mL | 1.56 µg/mL | > 100 µg/mL | 25 µg/mL | 0.78 µg/mL | > 100 µg/mL | 1.56 µg/mL | > 100 µg/mL | Minimum inhibitory concentration (MIC) [18]: 3.13 µg/mL; Minimum inhibitory concentration (MIC) (Candida albicans TA): > 100 µg/mL; Minimum inhibitory concentration (MIC) [19]: 3.13 µg/mL; Minimum inhibitory concentration (MIC) [20]: 6.25 µg/mL |
